From patent publication US20080004290A1, “Anti-Cancer Agents” (THE UNIVERSITY OF QUEENSLAND, priority 2003, published 2008)
Like-named read-outs stand apart in the source and are kept apart here.

Key:
MM96L melanoma cells = assay: Cell survival assay (clonogenic survival, SRB); assay type: cell-based, human; conditions: for SI (Selectivity Index = IC50 (NFF)/IC50 (MM96L)): NFF vs MM96L
Procedure: (§1) The cytotoxicities of the compounds of the invention were determined by clonogenic survival of human cancer cells (MM96L, melanoma) and human normal cells (NFF, neonatal foreskin fibroblasts). Cells were incubated with the compounds at various concentrations of compound (0.01-10 μg/mL) for 24 hours, washed, and then grown for a further four days in the absence of hydroxamic acid before determining cell survival by cell count. The final readout involved staining with sulforhodamine B (SRB), a cost-effective method amenable to automation and high throughput analysis. At the technical level, “cell sensitivity” is often inferred from short term (1-2 day) observations such as apoptosis, which may not be a satisfactory model of clonogenic survival.
(§2) Cell Lines and Culture Medium. All cell lines used in this study have been described previously (Parsons et al., 1986; Todaro et al., 1980; Glenn et al., 2004). All cell lines were cultured in 10% heat-inactivated foetal calf serum (CSL, Australia) in RPMI 1640 medium supplemented with 100 U/mL penicillin, 100 μg/mL streptomycin, and 3 mM HEPES at 5% CO2, 99% humidity at 37° C. Primary human fibroblasts were obtained from neonatal foreskins and cultured in the above medium. Routine mycoplasma tests were performed using Hoechst stain^i and were always negative.
(§3) Cell Survival Assay. Cells were plated into 96-well microtitre plates at 5×10^3 cells/well, and allowed to adhere overnight. Test compounds were added to culture medium at the indicated concentrations, and plates incubated in the above conditions for 24 hours. Following this incubation period, compounds and media were removed, and replaced with fresh culture medium. Cells were then grown for a further 72 hours before assay using sulforhodamine B (SRB; Sigma, St. Louis, Mo.) as previously described. Briefly, the culture medium was removed from the 96-well microtitre plates and the plates washed twice with phosphate buffered saline (PBS), before the cells were fixed with methylated spirits for 15 minutes. The plates were then rinsed with tap water and the fixed cells stained with 50 μL/well of SRB solution (0.4% sulforhodamine B (w/v) in 1% (v/v) acetic acid) over a period of 1 hour. The SRB solution was then removed from the wells and the plates rapidly washed two times with 1% (v/v) acetic acid. Protein bound dye was then solubilised with the addition of 100 μL of 10 mM unbuffered Tris, and incubated for 15 min at 25° C. Plates were then read at 564 nm on a VERSA max tunable microplate reader (Molecular Devices, Sunnyvale, Calif.).

[1] = tested on: NFF, neonatal foreskin fibroblasts; assay: Cell survival assay (clonogenic survival, SRB), normal cells; assay type: cell-based, human; conditions: SRB
Procedure: as §1, §2, §3

[2] = Homo sapiens, MM96L, MM96L melanoma, 24 h with compound, further 72 h growth, SRB, read-out: IC50 (uM) MM96L
[3] = Homo sapiens, Fibroblast, NFF normal fibroblasts, 24 h with compound, further 72 h growth, read-out: IC50 (uM) NFF
[4] = Table 5, 24 hours with compound, further growth, SRB, read-out: IC50 MM96L
[5] = Table 5, Selectivity Index = IC50 (NFF)/IC50 (MM96L)
[6] = Table 5, 24 hours with compound, further growth, read-out: IC50 NFF
[7] = Table 8, 24 hours with compound, further growth, SRB, read-out: IC50 (μM) MM96
[8] = Table 8, IC50 (NFF)/IC50 (MM96L)
[9] = Table 8, 24 hours with compound, further growth, read-out: IC50 (μM) NFF
[10] = Table 6, IC50 (NFF)/IC50 (MM96L)
[11] = Homo sapiens, MM96L, most preferred compounds, exemplary examples, read-out: potency of IC50 against the MM96 melanoma cells

With `O=C(CCCCC[C@H](NC(=O)c1ccc(C(F)(F)F)cc1)C(=O)NCc1ccccc1)NO` [Example 155] the IC50 (MM96L melanoma cells; [2]) was 0.665 µM, the “SI (Selectivity Index = IC50 (NFF)/IC50 (MM96L))” value (MM96L melanoma cells) was 2.4 and the IC50 [1, 3] was 1.61 µM.

With `O=C(CCCSC[C@H](NC(=O)c1ccc(-c2ccccc2)cc1)C(=O)NCc1ccccc1)NO` [Example 25] the IC50 (MM96L melanoma cells; [4]) was 0.9 ± 0.1 µM, the Selectivity (MM96L melanoma cells; [5]) was 3.1 and the IC50 [1, 6] was 2.8 ± 0.2 µM.

Compound `O=C(CCCSC[C@H](NC(=O)C1CC1)C(=O)NCc1ccccc1)NO` [Example 55] has an IC50 (MM96L melanoma cells; [4]) of 21 ± 2 µM, a Selectivity (MM96L melanoma cells; [5]) greater than 5 and an IC50 [1, 6] greater than 100 µM.

`CN(C)c1ccc(NC(=O)c2ccc(CNC(=O)[C@H](CSCCCC(=O)NO)NC(=O)c3ccc(N(C)C)cc3)cc2)cc1` [Example 109] showed an IC50 (MM96L melanoma cells; [7]) of 0.54 µM, a Selectivity (MM96L melanoma cells; [8]) of 4.5 and an IC50 [1, 9] of 2.42 µM.

With `CN(C)c1ccc(C(=O)N[C@@H](CSCCCC(=O)NO)C(=O)NCc2ccc(C(=O)NCc3ccccn3)cc2)cc1` [Example 108] the IC50 (MM96L melanoma cells; [7]) was 2.28 µM, the Selectivity (MM96L melanoma cells; [8]) was 7.4 and the IC50 [1, 9] was 16.9 µM.

`O=C(CCCSC[C@H](NC(=O)c1ccc2ccccc2c1)C(=O)NCc1ccccc1)NO` [Example 38] showed an IC50 (MM96L melanoma cells; [4]) of 0.6 ± 0.2 µM, a Selectivity (MM96L melanoma cells; [5]) of 1.9 and an IC50 [1, 6] of 1.14 ± 0.05 µM.

For `O=C(CCCSC[C@H](NC(=O)c1cccs1)C(=O)NCc1ccccc1)NO` [Example 33], the IC50 (MM96L melanoma cells; [4]) was 2.5 ± 0.2 µM, the Selectivity (MM96L melanoma cells; [5]) was 3.6 and the IC50 [1, 6] was 9 ± 1 µM.

In the case of `O=C(CCCSC[C@H](NC(=O)c1ccccc1C(=O)c1ccccc1)C(=O)NCc1ccccc1)NO` [Example 27], the IC50 (MM96L melanoma cells; [4]) is reported as 24 ± 3 µM, the Selectivity (MM96L melanoma cells; [5]) is reported as 1.3 and the IC50 [1, 6] is reported as 30 ± 1 µM.

`CN(C)c1ccc(C(=O)N[C@@H](CCCCCC(=O)NO)C(=O)NC2(Cc3ccccc3)CCCC2)cc1` [Example 128] was tested, and the IC50 (MM96L melanoma cells; [2]) was 0.9 ± 0.2 µM, the “SI (Selectivity Index = IC50 (NFF)/IC50 (MM96L))” value (MM96L melanoma cells) was 3.5 and the IC50 [1, 3] was 3 ± 0.3 µM.

For `CN(C)c1ccc(C(=O)N[C@@H](CSCCCC(=O)NO)C(=O)NC2(Cc3ccccc3)CCCC2)cc1` [Example 87], the IC50 (MM96L melanoma cells; Table 6, 24 hours with compound, further growth, SRB, read-out: IC50 (μM) MM96L) was 0.6 ± 0.1 µM, the Selectivity (MM96L melanoma cells; [10]) was 7.0 and the IC50 ([1]; Table 6, 24 hours with compound, further growth, read-out: IC50 (μM) NFF) was 4.2 ± 0.5 µM.

Compound `Cc1cc(C)cc(C(=O)N[C@@H](CSCCCC(=O)NO)C(=O)NCc2ccccc2)c1` [Example 26] has an IC50 (MM96L melanoma cells; [4]) of 2 ± 0.4 µM, a Selectivity (MM96L melanoma cells; [5]) of 5.5 and an IC50 [1, 6] of 10.9 ± 0.9 µM.

With `O=C(CCCSC[C@H](NC(=O)C(c1ccccc1)c1ccccc1)C(=O)NCc1ccccc1)NO` [Example 43] the IC50 (MM96L melanoma cells; [4]) was 9.3 ± 0.3 µM, the Selectivity (MM96L melanoma cells; [5]) was 2.4 and the IC50 [1, 6] was 22 ± 2 µM.

`O=C(CCCSC[C@H](NC(=O)c1cccc2ccccc12)C(=O)NCc1ccccc1)NO` [Example 37] was tested, and the IC50 (MM96L melanoma cells; [4]) was 6.3 ± 0.6 µM, the Selectivity (MM96L melanoma cells; [5]) was 0.8 and the IC50 [1, 6] was 5.3 ± 0.6 µM.

In the case of `CN(C)c1ccc(C(=O)N[C@@H](CSCCCC(=O)NO)C(=O)NCc2ccc(C(=O)Nc3cccc4c3CCCC4)cc2)cc1` [Example 118], the IC50 (MM96L melanoma cells; [7]) is reported as 1.17 µM, the Selectivity (MM96L melanoma cells; [8]) is reported as 3.2 and the IC50 [1, 9] is reported as 3.78 µM.

For `O=C(CCCSC[C@H](NC(=O)Cc1cccc2ccccc12)C(=O)NCc1ccccc1)NO` [Example 45], the IC50 (MM96L melanoma cells; [4]) was 4.1 ± 0.7 µM, the Selectivity (MM96L melanoma cells; [5]) was 3.7 and the IC50 [1, 6] was 15 ± 1 µM.

For `CN(C)c1ccc(C(=O)N[C@@H](CSCCCC(=O)NO)C(=O)NCc2ccc(C(=O)Nc3ccc4cn[nH]c4c3)cc2)cc1` [Example 114], the IC50 (MM96L melanoma cells; [7]) was 1.5 µM, the Selectivity (MM96L melanoma cells; [8]) was 8.1 and the IC50 [1, 9] was 12.2 µM.

In the case of `CN(C)c1ccc(C(=O)N[C@@H](CSCCCC(=O)NO)C(=O)NCC2CCCCC2)cc1` [Example 88], the IC50 (MM96L melanoma cells; Homo sapiens, MM96L, 24 h, Table 6, 24 hours with compound, further growth, SRB, read-out: IC50 (μM) MM96L) is reported as 0.51 ± 0.09 µM, the Selectivity (MM96L melanoma cells; [10]) is reported as 7.1 and the IC50 ([1]; Homo sapiens, Fibroblast, 24 h, Table 6, 24 hours with compound, further growth, read-out: IC50 (μM) NFF) is reported as 3.6 ± 0.2 µM.

`O=C(/C=C/c1ccccc1)N[C@@H](CCCCCC(=O)NO)C(=O)NCc1ccccc1` [Example 137] was tested, and the IC50 (MM96L melanoma cells; [11]) was no more than 0.5 µM, the IC50 (MM96L melanoma cells; MM96L melanoma, 24 h with compound, further 72 h growth, SRB, read-out: IC50 (uM) MM96L) was 0.46 µM and the “SI (Selectivity Index = IC50 (NFF)/IC50 (MM96L))” value (MM96L melanoma cells) was 8.7. For the same compound, the IC50 ([1]; NFF normal fibroblasts, 24 h with compound, further 72 h growth, read-out: IC50 (uM) NFF) was 4.01 µM.

With `O=C(CCCCC[C@H](NC(=O)c1ccco1)C(=O)NCc1ccccc1)NO` (racemic) [Example 133] the IC50 (MM96L melanoma cells; [2]) was 0.2 ± 0.1 µM, the IC50 (MM96L melanoma cells; [11]) was no more than 0.5 µM and the “SI (Selectivity Index = IC50 (NFF)/IC50 (MM96L))” value (MM96L melanoma cells) was 23. The IC50 [1, 3] was 4.6 ± 0.4 µM.
